Assay results: PMC11990670, “Exploring the Volatility, Phase Transitions, and Solubility Properties of Five Halogenated Benzaldehydes” (Molecules, 2025)
Converted amounts (≈) assume the structure as drawn. Where two headings read alike, the source gives them in different places.

Legend:
[1] = Gibbs energy of hydration and Henry's law volatility constant calculated from sublimation and solubility data; conditions: 25 °C; for Gibbs energy of hydration ΔhydrGm°: calculated by Equation (4); for log10(KHpc/kPa·m^3·mol^−1) Henry's law volatility constant: calculated by Equation (6); for KHpc×10^3 Henry's law volatility constant: value is KHpc multiplied by 10^3
Description: (§1) The concentration was measured by absorbances at 260 nm for 4-chlorobenzaldehyde, 263 nm for 4-bromobenzaldehyde and 2,4-dichlorobenzaldehyde, 297 nm for 2,6-dichlorobenzaldehyde, and 306 nm for 2,3-dichlorobenzaldehyde, using a Cary-60 UV–vis (Agilent) spectrophotometer. X-ray diffraction (XRD) and differential scanning calorimetry of residual solids were used to identify the eventual phase transformations. The purified samples of each compound studied were used for all experimental determinations, including the solubility measurements. After reaching the equilibrium, the residual solid was dried and analyzed using both DSC and XRD. The melting properties obtained from DSC were compared with those of the original purified sample, following the same procedure for the XRD analysis. […] As an example, the supporting information includes two thermograms and two XRD patterns for 2,4-dichlorobenzaldehyde (Figures S1 and S2). […] Equation (4) was derived from Equation (5), which is widely applicable to the solubility of solids.(4) ΔhydrGm°/kJ·mol^−1=9.17−5.71·log10(Scr/mol·m^−3)−ΔcrgGm°/kJ·mol^−1 (5) S=p^°/RTexpΔcrgGm°+ΔhydrGm°/−RT
The standard states in Equation (5) are p° = 1 × 10^5 Pa for ΔcrgGm° , c° = 1 mol·L^−1 for ΔhydrGm° and s° = 1 mol·m^−3 for solubility. Using the experimental results of ΔhydrGm° , calculated through Equation (4), the values of Henry’s law volatility constants, KHpc, were determined in the logarithm form by Equation (6), that was adapted from Modarressi et al..

[2] = Thermodynamic properties of sublimation and vaporization from Clarke and Glew fit of vapor pressures
Source text: The experimental crystalline and liquid vapor pressures were independently fitted by the Clarke and Glew Equation (1) in its truncated form:(1) Rlnp/p^°=−ΔcdgGm°θ/θ+ΔcdgHm°θ1/θ−1/T+ΔcdgCp,m°θθ/T−1+lnT/θ where R is the molar gas constant, p is the vapor pressure at the temperature T, p° is a selected reference pressure (p° = 10^5 Pa in this work), and θ is a reference temperature. The differences between gaseous and condensed phases of standard molar Gibbs energy, enthalpy, and the isobaric heat capacity are represented, respectively, by ΔcdgGm° , ΔcdgHm° , and ΔcdgCp,m° .
The values of ΔcdgCp,m° are generally achieved only when accurate experimental data measured over ca. 50 K are reachable. […] For comparison reasons, the values of ΔcrgCp,m° were also calculated as ΔcrgCp,m°(θ)=Cp,m°(g)−Cp,m°(cr) , where the terms Cp,m°(g) and Cp,m°(cr) are, respectively, the gas and crystalline isobaric molar heat capacities. […] The crystalline molar heat capacities, Cp,m°(cr) , were determined at different temperatures using differential scanning calorimetry, enabling the fit to second-order polynomials in temperature, represented by Equation (3) and reported in Table 3. […] The values of Cp,m°(cr,298.15 K) were derived from these equations, allowing ΔcrgCp,m°(298.15 K) to be calculated.

[3] = Equilibrium solubility in water, saturation shake-flask method with UV-vis; conditions: 25 °C, thermodynamic from solid
Description: as §1
An excess amount of each compound was added to a known volume of water in triplicate. […] After stirring, the solid phase was allowed to settle for 2 h. The pH of the saturated solutions was measured using a Mettler Toledo (Greifensee, Switzerland) FiveEasy F20 pH Meter calibrated with standard aqueous solutions (pH 7.00 and 4.01 or 10.1). Those solutions were then filtered through a 0.22 μm syringe hydrophilic filter (13 mm, PTFE, Labfil, Zhejiang, China) and diluted to the required concentration. The concentration of the compounds, expressed in molarity, was measured by absorbances using a Cary-60 UV–vis spectrophotometer (Agilent Technologies, Santa Clara, CA, USA) at 298.15 K (single cell Peltier accessory, ±0.15 K). The results reported in Table 6 are averaged from at least three replicates. Calibration was performed using solutions of known concentrations of each substance in water. These solutions were prepared by adding a precise mass of the substance and a specific volume of the solvent to a flask, then mixing until the substance was fully dissolved. The absorbance of these solutions was measured, and calibration curves were created.

[4] = cited from earlier work
[5] = crystalline phase, θ = 298.15 K
[6] = crystalline phase, θ = 298.15 K, p° = 10^5 Pa
[7] = crystalline phase, θ = 307.92 K (mean temperature)
[8] = crystalline phase, θ = 334.82 K (triple point)
[9] = liquid phase including supercooled liquid, θ = 298.15 K
[10] = liquid phase including supercooled liquid, θ = 298.15 K, p° = 10^5 Pa
[11] = liquid phase, θ = 334.82 K (triple point)
[12] = liquid phase, θ = 354.31 K (mean temperature)
[13] = crystalline phase, θ = 313.72 K (mean temperature)
[14] = crystalline phase, θ = 343.90 K (triple point)
[15] = liquid phase, θ = 343.90 K (triple point)
[16] = liquid phase, θ = 350.04 K (mean temperature)
[17] = crystalline phase, θ = 315.46 K (mean temperature)
[18] = crystalline phase, θ = 342.99 K (triple point)
[19] = liquid phase, θ = 342.99 K (triple point)
[20] = liquid phase, θ = 358.95 K (mean temperature)
[21] = crystalline phase, θ = 303.88 K (mean temperature)
[22] = crystalline phase, θ = 330.02 K (triple point)
[23] = liquid phase, θ = 330.02 K (triple point)
[24] = liquid phase, θ = 345.37 K (mean temperature)

O=Cc1cccc(Cl)c1Cl [2,3-Dichlorobenzaldehyde]
Gibbs energy of hydration ΔhydrGm° [1]: -3.99 kcal/mol
log10(KHpc/kPa·m^3·mol^−1) Henry's law volatility constant [1]: −2.53
KHpc×10^3 Henry's law volatility constant [1]: 2.95 kPa·m^3·mol^−1
triple point pressure ptp ([2]; Ttp = 334.82 K): 87.6 Pa
p (Equation (1)) vapor pressure [2, 5]: 2.47 Pa
ΔcdgGm°(θ) standard molar Gibbs energy of sublimation [2, 6]: 6.286 ± 0.0024 kcal/mol
ΔcdgHm°(θ) standard molar enthalpy of sublimation [2, 6]: 19.4 ± 0.072 kcal/mol
ΔcdgSm°(θ) (Equation (2)) standard molar entropy of sublimation [2, 6]: 184.1 ± 1.0 J·K^−1·mol^−1
p (Equation (1)) vapor pressure [2, 7]: 6.98 Pa
ΔcdgGm°(θ) standard molar Gibbs energy of sublimation [2, 7]: 5.856 ± 0.0024 kcal/mol
ΔcdgHm°(θ) standard molar enthalpy of sublimation [2, 7]: 19.4 ± 0.048 kcal/mol
p (Equation (1)) vapor pressure [2, 8]: 87.6 Pa
ΔcdgGm°(θ) standard molar Gibbs energy of sublimation [2, 8]: 4.685 ± 0.0072 kcal/mol
ΔcdgHm°(θ) standard molar enthalpy of sublimation [2, 8]: 19.2 ± 0.096 kcal/mol
p (Equation (1)) vapor pressure [2, 9]: 5.81 Pa
ΔcdgGm°(θ) standard molar Gibbs energy of vaporization [2, 10]: 5.779 ± 0.019 kcal/mol
ΔcdgHm°(θ) standard molar enthalpy of vaporization [2, 10]: 15 ± 0.263 kcal/mol
ΔcdgSm°(θ) (Equation (2)) standard molar entropy of vaporization [2, 10]: 129.2 ± 3.7 J·K^−1·mol^−1
p (Equation (1)) vapor pressure [2, 11]: 87.6 Pa
ΔcdgGm°(θ) standard molar Gibbs energy of vaporization [2, 11]: 4.685 ± 0.0072 kcal/mol
ΔcdgHm°(θ) standard molar enthalpy of vaporization [2, 11]: 14.3 ± 0.096 kcal/mol
p (Equation (1)) vapor pressure [2, 12]: 282 Pa
ΔcdgGm°(θ) standard molar Gibbs energy of vaporization [2, 12]: 4.132 ± 0.0024 kcal/mol
ΔcdgHm°(θ) standard molar enthalpy of vaporization [2, 12]: 14 ± 0.024 kcal/mol
solubility at 72 h [3]: 853 µM (≈ 149 µg/mL)

O=Cc1ccc(Cl)cc1Cl [2,4-Dichlorobenzaldehyde]
Gibbs energy of hydration ΔhydrGm° [1]: -3.94 kcal/mol
log10(KHpc/kPa·m^3·mol^−1) Henry's law volatility constant [1]: −2.50
KHpc×10^3 Henry's law volatility constant [1]: 3.16 kPa·m^3·mol^−1
triple point pressure ptp ([2]; Ttp = 343.90 K): 2.01 × 10^2 Pa
p (Equation (1)) vapor pressure [2, 5]: 2.64 Pa
ΔcdgGm°(θ) standard molar Gibbs energy of sublimation [2, 6]: 6.245 ± 0.0024 kcal/mol
ΔcdgHm°(θ) standard molar enthalpy of sublimation [2, 6]: 19.5 ± 0.048 kcal/mol
ΔcdgSm°(θ) (Equation (2)) standard molar entropy of sublimation [2, 6]: 185.7 ± 0.7 J·K^−1·mol^−1
p (Equation (1)) vapor pressure [2, 13]: 13.5 Pa
ΔcdgGm°(θ) standard molar Gibbs energy of sublimation [2, 13]: 5.557 ± 0.0024 kcal/mol
ΔcdgHm°(θ) standard molar enthalpy of sublimation [2, 13]: 19.4 ± 0.024 kcal/mol
p (Equation (1)) vapor pressure [2, 14]: 201 Pa
ΔcdgGm°(θ) standard molar Gibbs energy of sublimation [2, 14]: 4.242 ± 0.0048 kcal/mol
ΔcdgHm°(θ) standard molar enthalpy of sublimation [2, 14]: 19.1 ± 0.12 kcal/mol
p (Equation (1)) vapor pressure [2, 9]: 7.95 Pa
ΔcdgGm°(θ) standard molar Gibbs energy of vaporization [2, 10]: 5.593 ± 0.012 kcal/mol
ΔcdgHm°(θ) standard molar enthalpy of vaporization [2, 10]: 14.8 ± 0.17 kcal/mol
ΔcdgSm°(θ) (Equation (2)) standard molar entropy of vaporization [2, 10]: 129.1 ± 2.4 J·K^−1·mol^−1
p (Equation (1)) vapor pressure [2, 15]: 201 Pa
ΔcdgGm°(θ) standard molar Gibbs energy of vaporization [2, 15]: 4.242 ± 0.0048 kcal/mol
ΔcdgHm°(θ) standard molar enthalpy of vaporization [2, 15]: 14 ± 0.024 kcal/mol
p (Equation (1)) vapor pressure [2, 16]: 289 Pa
ΔcdgGm°(θ) standard molar Gibbs energy of vaporization [2, 16]: 4.068 ± 0.0024 kcal/mol
ΔcdgHm°(θ) standard molar enthalpy of vaporization [2, 16]: 13.9 ± 0.024 kcal/mol
solubility at 72 h [3]: 821 µM (≈ 144 µg/mL)

O=Cc1c(Cl)cccc1Cl [2,6-Dichlorobenzaldehyde]
Gibbs energy of hydration ΔhydrGm° [1]: -4.73 kcal/mol
log10(KHpc/kPa·m^3·mol^−1) Henry's law volatility constant [1]: −3.07
KHpc×10^3 Henry's law volatility constant [1]: 0.851 kPa·m^3·mol^−1
triple point pressure ptp ([2]; Ttp = 342.99 K): 85.7 Pa
p (Equation (1)) vapor pressure [2, 5]: 0.95 Pa
ΔcdgGm°(θ) standard molar Gibbs energy of sublimation [2, 6]: 6.85 ± 0.0024 kcal/mol
ΔcdgHm°(θ) standard molar enthalpy of sublimation [2, 6]: 20.5 ± 0.096 kcal/mol
ΔcdgSm°(θ) (Equation (2)) standard molar entropy of sublimation [2, 6]: 192.0 ± 1.3 J·K^−1·mol^−1
p (Equation (1)) vapor pressure [2, 17]: 6.35 Pa
ΔcdgGm°(θ) standard molar Gibbs energy of sublimation [2, 17]: 6.059 ± 0.0024 kcal/mol
ΔcdgHm°(θ) standard molar enthalpy of sublimation [2, 17]: 20.4 ± 0.024 kcal/mol
p (Equation (1)) vapor pressure [2, 18]: 85.7 Pa
ΔcdgGm°(θ) standard molar Gibbs energy of sublimation [2, 18]: 4.814 ± 0.0048 kcal/mol
ΔcdgHm°(θ) standard molar enthalpy of sublimation [2, 18]: 20.2 ± 0.17 kcal/mol
p (Equation (1)) vapor pressure [2, 9]: 2.84 Pa
ΔcdgGm°(θ) standard molar Gibbs energy of vaporization [2, 10]: 6.202 ± 0.0239 kcal/mol
ΔcdgHm°(θ) standard molar enthalpy of vaporization [2, 10]: 15.8 ± 0.287 kcal/mol
ΔcdgSm°(θ) (Equation (2)) standard molar entropy of vaporization [2, 10]: 135.0 ± 4.0 J·K^−1·mol^−1
p (Equation (1)) vapor pressure [2, 19]: 85.7 Pa
ΔcdgGm°(θ) standard molar Gibbs energy of vaporization [2, 19]: 4.814 ± 0.0048 kcal/mol
ΔcdgHm°(θ) standard molar enthalpy of vaporization [2, 19]: 15 ± 0.072 kcal/mol
p (Equation (1)) vapor pressure [2, 20]: 225 Pa
ΔcdgGm°(θ) standard molar Gibbs energy of vaporization [2, 20]: 4.348 ± 0.0024 kcal/mol
ΔcdgHm°(θ) standard molar enthalpy of vaporization [2, 20]: 14.7 ± 0.024 kcal/mol
solubility at 72 h [3]: 1130 µM (≈ 197 µg/mL)

O=Cc1ccc(Br)cc1 [4-Bromobenzaldehyde]
Gibbs energy of hydration ΔhydrGm° [1]: -4.49 kcal/mol
log10(KHpc/kPa·m^3·mol^−1) Henry's law volatility constant [1]: −2.90
KHpc×10^3 Henry's law volatility constant [1]: 1.26 kPa·m^3·mol^−1
triple point pressure ptp ([2]; Ttp = 330.02 K): 99.1 Pa
p (Equation (1)) vapor pressure [2, 5]: 4.59 Pa
ΔcdgGm°(θ) standard molar Gibbs energy of sublimation [2, 6]: 5.918 ± 0.0024 kcal/mol
ΔcdgHm°(θ) standard molar enthalpy of sublimation [2, 6]: 19 ± 0.048 kcal/mol
ΔcdgSm°(θ) (Equation (2)) standard molar entropy of sublimation [2, 6]: 183.3 ± 0.7 J·K^−1·mol^−1
p (Equation (1)) vapor pressure [2, 21]: 8.40 Pa
ΔcdgGm°(θ) standard molar Gibbs energy of sublimation [2, 21]: 5.667 ± 0.0024 kcal/mol
ΔcdgHm°(θ) standard molar enthalpy of sublimation [2, 21]: 18.9 ± 0.048 kcal/mol
p (Equation (1)) vapor pressure [2, 22]: 99.1 Pa
ΔcdgGm°(θ) standard molar Gibbs energy of sublimation [2, 22]: 4.536 ± 0.0072 kcal/mol
ΔcdgHm°(θ) standard molar enthalpy of sublimation [2, 22]: 18.7 ± 0.17 kcal/mol
p (Equation (1)) vapor pressure [2, 9]: 9.57 Pa
ΔcdgGm°(θ) standard molar Gibbs energy of vaporization [2, 10]: 5.483 ± 0.012 kcal/mol
ΔcdgHm°(θ) standard molar enthalpy of vaporization [2, 10]: 14.6 ± 0.17 kcal/mol
ΔcdgSm°(θ) (Equation (2)) standard molar entropy of vaporization [2, 10]: 128.3 ± 2.4 J·K^−1·mol^−1
p (Equation (1)) vapor pressure [2, 23]: 99.1 Pa
ΔcdgGm°(θ) standard molar Gibbs energy of vaporization [2, 23]: 4.536 ± 0.0072 kcal/mol
ΔcdgHm°(θ) standard molar enthalpy of vaporization [2, 23]: 14 ± 0.072 kcal/mol
p (Equation (1)) vapor pressure [2, 24]: 254 Pa
ΔcdgGm°(θ) standard molar Gibbs energy of vaporization [2, 24]: 4.101 ± 0.0024 kcal/mol
ΔcdgHm°(θ) standard molar enthalpy of vaporization [2, 24]: 13.7 ± 0.024 kcal/mol
solubility at 72 h [3]: 3710 µM (≈ 687 µg/mL)
water solubility, estimated value ([4]; ALI method): 7060 µM (≈ 1310 µg/mL)
water solubility, estimated value ([4]; ESOL method): 1680 µM (≈ 311 µg/mL)
water solubility, estimated value ([4]; SILICO-IT method): 634 µM (≈ 117 µg/mL)
